Experimental data reported in US11572590B2, “Methods for evaluating tumor cell spheroids using 3D microfluidic cell culture device” (Dana-Farber Cancer Institute, Inc., priority 2017, dated 2023).
Where two headings read alike, the source gives them in different places.

Key:
Assay in all cases: SelectScreen Kinase Profiling, single point inhibition and IC50 for off-target kinases
Format in all cases: biochemical
[1] = target: off-target kinases (Homo sapiens, UniProt P00533, L858R); conditions: EGFR (ErbB1) L858R (mutant), ZLYTE, ATP Km app
[2] = target: off-target kinases (Homo sapiens, UniProt P04049, Y340D/Y341D)
off-target kinases (Homo sapiens, UniProt P04049, Y340D/Y341D), sequence (P04049 whole entry Y340D/Y341D): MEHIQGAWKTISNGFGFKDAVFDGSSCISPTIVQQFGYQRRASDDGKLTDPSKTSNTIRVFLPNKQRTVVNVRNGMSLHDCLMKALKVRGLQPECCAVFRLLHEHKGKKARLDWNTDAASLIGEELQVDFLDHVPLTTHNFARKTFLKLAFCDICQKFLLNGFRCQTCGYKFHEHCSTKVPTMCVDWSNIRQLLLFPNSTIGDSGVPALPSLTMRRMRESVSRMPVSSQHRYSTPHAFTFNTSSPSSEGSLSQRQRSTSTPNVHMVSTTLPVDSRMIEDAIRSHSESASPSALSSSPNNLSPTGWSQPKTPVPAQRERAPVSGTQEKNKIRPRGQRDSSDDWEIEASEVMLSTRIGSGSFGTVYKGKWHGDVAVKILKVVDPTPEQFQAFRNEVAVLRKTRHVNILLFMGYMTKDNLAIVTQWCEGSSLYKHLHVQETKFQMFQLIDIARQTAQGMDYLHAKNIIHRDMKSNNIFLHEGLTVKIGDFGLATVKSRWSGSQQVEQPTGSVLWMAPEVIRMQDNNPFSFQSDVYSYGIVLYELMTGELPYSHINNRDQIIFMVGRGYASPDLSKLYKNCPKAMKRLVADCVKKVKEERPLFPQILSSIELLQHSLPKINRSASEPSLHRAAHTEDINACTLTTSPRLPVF

[3] = target: off-target kinases (Homo sapiens, UniProt P07947); conditions: YES1, ATP Km app, ZLYTE
off-target kinases (Homo sapiens, UniProt P07947), sequence (P07947 whole entry): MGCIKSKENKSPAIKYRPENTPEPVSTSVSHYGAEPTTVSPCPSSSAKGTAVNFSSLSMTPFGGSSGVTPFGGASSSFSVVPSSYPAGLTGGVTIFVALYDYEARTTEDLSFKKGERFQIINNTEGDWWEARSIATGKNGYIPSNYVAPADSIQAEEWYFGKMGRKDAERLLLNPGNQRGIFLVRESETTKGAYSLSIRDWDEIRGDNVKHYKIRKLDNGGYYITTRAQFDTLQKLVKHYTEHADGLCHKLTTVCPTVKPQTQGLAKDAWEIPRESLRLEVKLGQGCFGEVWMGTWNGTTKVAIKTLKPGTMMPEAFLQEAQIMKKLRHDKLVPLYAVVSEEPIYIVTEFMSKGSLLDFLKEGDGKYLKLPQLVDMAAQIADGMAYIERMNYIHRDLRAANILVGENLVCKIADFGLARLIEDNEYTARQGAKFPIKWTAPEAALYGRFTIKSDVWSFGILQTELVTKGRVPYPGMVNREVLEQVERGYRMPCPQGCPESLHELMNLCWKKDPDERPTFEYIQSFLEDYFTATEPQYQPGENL

[4] = target: off-target kinases (Homo sapiens, UniProt P22607, K650E); conditions: FGFR3 K650E (mutant), ZLYTE, ATP Km app
off-target kinases (Homo sapiens, UniProt P22607, K650E), sequence (P22607 23-806 K650E): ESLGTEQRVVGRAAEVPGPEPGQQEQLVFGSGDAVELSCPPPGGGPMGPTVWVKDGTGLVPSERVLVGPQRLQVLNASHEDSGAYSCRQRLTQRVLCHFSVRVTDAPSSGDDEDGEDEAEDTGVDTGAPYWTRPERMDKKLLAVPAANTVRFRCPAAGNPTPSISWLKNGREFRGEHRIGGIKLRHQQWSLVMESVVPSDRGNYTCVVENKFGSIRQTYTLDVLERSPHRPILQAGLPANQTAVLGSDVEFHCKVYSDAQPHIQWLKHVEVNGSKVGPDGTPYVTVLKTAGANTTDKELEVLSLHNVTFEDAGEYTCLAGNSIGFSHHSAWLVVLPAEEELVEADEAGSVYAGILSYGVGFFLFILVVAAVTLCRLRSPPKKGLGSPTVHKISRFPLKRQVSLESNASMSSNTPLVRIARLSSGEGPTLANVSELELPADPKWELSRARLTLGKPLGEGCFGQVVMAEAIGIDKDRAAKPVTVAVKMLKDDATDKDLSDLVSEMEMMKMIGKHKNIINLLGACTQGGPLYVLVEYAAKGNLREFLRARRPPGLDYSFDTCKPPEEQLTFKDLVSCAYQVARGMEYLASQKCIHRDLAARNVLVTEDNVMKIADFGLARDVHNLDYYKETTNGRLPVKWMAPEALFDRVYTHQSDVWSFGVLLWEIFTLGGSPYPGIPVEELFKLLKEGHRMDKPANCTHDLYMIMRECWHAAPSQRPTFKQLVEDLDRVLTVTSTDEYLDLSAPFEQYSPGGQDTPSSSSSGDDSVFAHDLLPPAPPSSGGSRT

[5] = target: off-target kinases (Homo sapiens, UniProt P42684); conditions: ABL2 (Arg), ZLYTE, ATP Km app
[6] = target: T1, off-target kinases (Homo sapiens, UniProt Q13873); conditions: BMPR2, LanthaScreen Binding
T1 sequence (Q13873 27-1038): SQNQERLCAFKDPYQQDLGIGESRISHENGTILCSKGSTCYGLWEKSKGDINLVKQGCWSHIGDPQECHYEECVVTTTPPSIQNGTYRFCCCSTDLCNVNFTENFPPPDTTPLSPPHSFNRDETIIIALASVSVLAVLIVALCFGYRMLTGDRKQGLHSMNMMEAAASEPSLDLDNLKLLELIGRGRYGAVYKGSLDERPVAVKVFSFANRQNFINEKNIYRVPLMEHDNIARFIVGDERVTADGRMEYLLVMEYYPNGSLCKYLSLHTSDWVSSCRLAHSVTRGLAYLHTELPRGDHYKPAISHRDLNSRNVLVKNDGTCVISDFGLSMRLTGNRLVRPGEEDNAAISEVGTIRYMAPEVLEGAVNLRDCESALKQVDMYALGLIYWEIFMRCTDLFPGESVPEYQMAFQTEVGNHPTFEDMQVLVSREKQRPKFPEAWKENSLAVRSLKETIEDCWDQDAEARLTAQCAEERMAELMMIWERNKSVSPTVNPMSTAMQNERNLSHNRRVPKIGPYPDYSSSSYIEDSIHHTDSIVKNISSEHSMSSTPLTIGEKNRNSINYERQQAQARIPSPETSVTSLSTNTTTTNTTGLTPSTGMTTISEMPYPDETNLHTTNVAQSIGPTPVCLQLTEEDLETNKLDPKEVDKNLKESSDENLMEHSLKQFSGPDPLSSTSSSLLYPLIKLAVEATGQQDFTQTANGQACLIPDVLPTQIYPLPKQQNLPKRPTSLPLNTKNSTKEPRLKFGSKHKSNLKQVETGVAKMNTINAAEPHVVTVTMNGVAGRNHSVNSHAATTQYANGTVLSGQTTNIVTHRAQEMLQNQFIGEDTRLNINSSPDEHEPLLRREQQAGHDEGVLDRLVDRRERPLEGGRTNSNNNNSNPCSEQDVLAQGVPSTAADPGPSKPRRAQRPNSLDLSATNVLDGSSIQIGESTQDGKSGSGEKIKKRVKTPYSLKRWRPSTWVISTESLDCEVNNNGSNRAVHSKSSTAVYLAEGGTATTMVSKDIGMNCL

[7] = target: off-target kinases (Homo sapiens, UniProt Q5S007, I2020T); conditions: LRRK2 I2020T, ATP Km app, Adapta
off-target kinases (Homo sapiens, UniProt Q5S007, I2020T), sequence (Q5S007 whole entry I2020T): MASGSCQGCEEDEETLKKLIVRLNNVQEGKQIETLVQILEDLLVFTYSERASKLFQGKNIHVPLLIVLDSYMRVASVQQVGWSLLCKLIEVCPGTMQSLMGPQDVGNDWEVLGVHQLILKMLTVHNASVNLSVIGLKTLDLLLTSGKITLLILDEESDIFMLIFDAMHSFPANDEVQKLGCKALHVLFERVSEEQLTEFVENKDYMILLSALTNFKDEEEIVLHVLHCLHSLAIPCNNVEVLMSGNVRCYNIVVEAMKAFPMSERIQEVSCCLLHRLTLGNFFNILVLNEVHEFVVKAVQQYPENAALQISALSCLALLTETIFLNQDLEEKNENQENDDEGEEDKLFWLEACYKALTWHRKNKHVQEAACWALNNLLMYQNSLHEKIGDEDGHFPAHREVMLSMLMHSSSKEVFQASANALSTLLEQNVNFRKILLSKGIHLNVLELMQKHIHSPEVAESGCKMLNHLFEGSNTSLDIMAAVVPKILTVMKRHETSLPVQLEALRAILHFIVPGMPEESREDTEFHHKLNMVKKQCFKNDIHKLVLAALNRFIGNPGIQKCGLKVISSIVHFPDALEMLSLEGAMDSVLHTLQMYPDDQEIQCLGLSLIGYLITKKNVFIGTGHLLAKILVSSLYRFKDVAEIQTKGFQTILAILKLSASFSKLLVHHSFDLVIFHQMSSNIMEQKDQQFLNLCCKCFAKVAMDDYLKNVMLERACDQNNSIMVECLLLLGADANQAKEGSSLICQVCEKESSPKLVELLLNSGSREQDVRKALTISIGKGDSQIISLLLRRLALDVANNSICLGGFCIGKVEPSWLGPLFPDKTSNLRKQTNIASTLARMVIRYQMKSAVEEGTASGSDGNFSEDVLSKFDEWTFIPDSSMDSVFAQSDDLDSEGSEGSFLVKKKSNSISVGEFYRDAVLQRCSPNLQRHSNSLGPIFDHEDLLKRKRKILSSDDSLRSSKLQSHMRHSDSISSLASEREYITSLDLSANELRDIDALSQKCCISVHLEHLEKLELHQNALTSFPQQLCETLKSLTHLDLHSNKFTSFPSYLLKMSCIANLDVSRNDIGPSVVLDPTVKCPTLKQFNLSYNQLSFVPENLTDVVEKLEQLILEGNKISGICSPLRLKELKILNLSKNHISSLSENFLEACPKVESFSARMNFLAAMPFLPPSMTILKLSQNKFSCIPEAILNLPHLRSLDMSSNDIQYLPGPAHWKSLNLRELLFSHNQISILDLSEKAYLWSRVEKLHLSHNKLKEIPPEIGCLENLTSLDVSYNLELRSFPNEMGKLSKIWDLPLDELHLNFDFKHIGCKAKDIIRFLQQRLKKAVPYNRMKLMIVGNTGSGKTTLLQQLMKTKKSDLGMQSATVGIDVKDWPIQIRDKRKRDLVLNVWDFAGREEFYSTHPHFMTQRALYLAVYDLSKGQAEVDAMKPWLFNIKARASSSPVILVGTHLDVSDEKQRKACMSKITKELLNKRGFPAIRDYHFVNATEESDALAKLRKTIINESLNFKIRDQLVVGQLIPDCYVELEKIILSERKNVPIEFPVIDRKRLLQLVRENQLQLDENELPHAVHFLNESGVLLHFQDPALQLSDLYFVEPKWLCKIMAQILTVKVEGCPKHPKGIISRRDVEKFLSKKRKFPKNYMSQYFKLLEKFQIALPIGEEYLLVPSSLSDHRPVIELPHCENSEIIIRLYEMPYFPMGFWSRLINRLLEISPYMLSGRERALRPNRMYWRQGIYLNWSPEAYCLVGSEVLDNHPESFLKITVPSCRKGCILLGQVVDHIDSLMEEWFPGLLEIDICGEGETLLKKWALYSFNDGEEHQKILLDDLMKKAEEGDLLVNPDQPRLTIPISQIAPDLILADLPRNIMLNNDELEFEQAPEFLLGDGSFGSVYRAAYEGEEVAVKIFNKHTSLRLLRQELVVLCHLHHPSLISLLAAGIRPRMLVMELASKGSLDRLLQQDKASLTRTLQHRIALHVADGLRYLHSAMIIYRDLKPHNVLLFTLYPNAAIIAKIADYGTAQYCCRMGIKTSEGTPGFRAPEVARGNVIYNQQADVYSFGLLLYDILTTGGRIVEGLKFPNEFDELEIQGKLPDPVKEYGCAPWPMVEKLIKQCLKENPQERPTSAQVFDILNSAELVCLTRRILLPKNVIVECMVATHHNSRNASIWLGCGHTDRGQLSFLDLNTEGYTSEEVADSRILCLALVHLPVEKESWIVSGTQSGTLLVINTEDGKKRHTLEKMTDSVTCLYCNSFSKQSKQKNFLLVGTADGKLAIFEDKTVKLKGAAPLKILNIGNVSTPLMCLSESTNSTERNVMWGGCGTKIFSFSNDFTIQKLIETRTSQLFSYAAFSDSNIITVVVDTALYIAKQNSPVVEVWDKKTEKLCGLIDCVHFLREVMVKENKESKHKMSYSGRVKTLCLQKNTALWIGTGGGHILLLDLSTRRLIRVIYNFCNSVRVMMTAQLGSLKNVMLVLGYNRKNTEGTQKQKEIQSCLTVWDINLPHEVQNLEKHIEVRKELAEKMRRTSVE

`N#Cc1cc(-c2ncnc(Nc3ccc(N4CCN(C5COC5)CC4)cc3)n2)ccc1OC1CCOCC1` [Compound 1, 5-(4-((4-(4-(oxetan-3-yl)piperazin-1-yl)phenyl)amino)-1,3,5-triazin-2-yl)-2-((tetrahydro-2H-pyran-4-yl)oxy)benzonitrile] showed an inhibition ([1]; read-out: % Inhibition 1) of 6%, an inhibition ([1]; read-out: % Inhibition 2) of 3% and an inhibition ([1]; read-out: % Inhibition Avg) of 4%. It also gave an inhibition ([2]; RAF1 (cRAF) Y340D Y341D (mutant), ZLYTE, ATP 100, read-out: % Inhibition 1) of 5%, an inhibition ([2]; RAF1 (cRAF) Y340D Y341D (mutant), ZLYTE, ATP 100, read-out: % Inhibition 2) of 3% and an inhibition ([2]; RAF1 (cRAF) Y340D Y341D (mutant), ZLYTE, ATP 100, read-out: % Inhibition Avg) of 4%. For the same molecule, the inhibition ([2]; RAF1 (cRAF) Y340D Y341D, mutant y, LanthaScreen Binding, read-out: % Inhibition 1) was 15%, the inhibition ([2]; RAF1 (cRAF) Y340D Y341D, mutant y, LanthaScreen Binding, read-out: % Inhibition 2) was 20% and the inhibition ([2]; RAF1 (cRAF) Y340D Y341D, mutant y, LanthaScreen Binding, read-out: % Inhibition Avg) was 18%. It also gave an inhibition ([3]; read-out: % Inhibition 1) of 55%, an inhibition ([3]; read-out: % Inhibition 2) of 51% and an inhibition ([3]; read-out: % Inhibition Avg) of 53%. For the same molecule, the inhibition ([4]; read-out: % Inhibition 1) was 11%, the inhibition ([4]; read-out: % Inhibition 2) was 6% and the inhibition ([4]; read-out: % Inhibition Avg) was 8%. For the same molecule, the inhibition ([5]; read-out: % Inhibition 1) was 40%, the inhibition ([5]; read-out: % Inhibition 2) was 39% and the inhibition ([5]; read-out: % Inhibition Avg) was 40%. For the same molecule, the inhibition ([6]; read-out: % Inhibition 1) was 50%, the inhibition ([6]; read-out: % Inhibition 2) was 47% and the inhibition ([6]; read-out: % Inhibition Avg) was 49%. For the same molecule, the inhibition ([7]; read-out: % Inhibition 1) was 100%, the inhibition ([7]; read-out: % Inhibition 2) was 98% and the inhibition ([7]; read-out: % Inhibition Avg) was 99%.
